Values quoted from earlier work, collected in patent publication US9314435B2, “Stable formulations of antiplatelet agents, omega-3 fatty acids and amylose in soft gelatin capsules” (ALTERGON S.A., priority 2011, dated 2016).

Details: 325 mg on alternate days

## CC(=O)Oc1ccccc1C(=O)O [ASA, Acetylsalicylic acid]
  reduction of the risk of the first heart attack: 44%
